Experimental data as given in the supplement of paper PMC11208160.

Test: recombinant barcode read abundance after kanamycin selection (control-corrected) (log10(CPM+1)); higher = more efficient recombination; sequences stand for … in AGTGCAGAGAAAATCGGCCAGTTTTCTCTGCCTGCAGTCCGCATGCCGT…AGATTTATGCAGCGGACTGCCTTTCTCCCAAAGTGATAAACCGGACAGTATCATGGACCGGTTTTCCCGGTAATCCGTATTTGCAAGGTTGGTTTCACT; site = the 11-nt target
Summary of the method: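 IS621 bridge RNA target-binding loops were paired with targets in a pooled library tested in E. coli. After co-electroporation with a donor plasmid, cells were plated in two replicates on chloramphenicol/ampicillin LB agar (control) and on chloramphenicol/ampicillin/kanamycin carrying 0.1 mM IPTG. Barcodes at recombinant junctions were counted as counts per million, averaged and control-corrected to give recombination efficiency. Values are log10(CPM+1).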
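Further: IS621 recombinase and bridge RNA in Escherichia coli cells.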

Sequence	recombinant barcode read abundance (log10)
GGTTGTTCTTGGGTTCTAACCTGTTGCCT (site TGTTGTTCTAG)	0.0976
GTAAACACTTGGGTTCTAACCTGTTGCAG (site GTAAACACTCT)	0.514
GTAAACACTTGGGTTCTAACCTGTTGCAG (site GTAGACACTCG)	0.113
GTAACCTCTTGGGTTCTAACCTGTTGCTC (site GTAACCTCTGA)	2.05
GTAACCTCTTGGGTTCTAACCTGTTGCTC (site GTCACCTCTTA)	0.00986
GTAACTACTTGGGTTCTAACCTGTTGCTC (site ACGTAACCTAG)	0.0897
GTAACTACTTGGGTTCTAACCTGTTGCTC (site GTAACTACTGA)	0.475
GTAAGAACTTGGGTTCTAACCTGTTGCTT (site GTAAGAACTAA)	0.629
GTAAGAACTTGGGTTCTAACCTGTTGCTT (site GTAAGCACTAA)	0.0763
GTAAGAACTTGGGTTCTAACCTGTTGCTT (site GTAAGGACTAA)	0.0891
GTAAGAACTTGGGTTCTAACCTGTTGCTT (site GTAAGTACTAA)	0.03
GTAAGCACTTGGGTTCTAACCTGTTGCTT (site GTAAGAACTAA)	0.0561
GTAAGCACTTGGGTTCTAACCTGTTGCTT (site GTAAGCACTAA)	0.18
GTAAGCACTTGGGTTCTAACCTGTTGCTT (site GTAAGGACTAA)	0.0207
GTAAGCACTTGGGTTCTAACCTGTTGCTT (site GTAAGTACTAA)	0.242
GTAAGCTCTTGGGTTCTAACCTGTTGCCT (site ATAAGCTCTAG)	1.34
GTAAGCTCTTGGGTTCTAACCTGTTGCCT (site CTAAGCTCTAG)	0.349
GTAAGCTCTTGGGTTCTAACCTGTTGCCT (site GTAAGCTCTAG)	2.15
GTAAGCTCTTGGGTTCTAACCTGTTGCCT (site TTAAGCTCTAG)	0.932
GTAAGTACTTGGGTTCTAACCTGTTGCGG (site AGAAGTACTCC)	0
GTAAGTACTTGGGTTCTAACCTGTTGCGG (site GTAAGTACTCC)	2.06
GTACAAGCTTGGGTTCTAACCTGTTGCCT (site AGGAGTCCTCT)	0.102

Sequence	recombinant barcode read abundance (log10)
GTACAAGCTTGGGTTCTAACCTGTTGCCT (site GTACAAGCTAG)	1.08
GTACCGCCTTGGGTTCTAACCTGTTGCCT (site GTACAGCCTAG)	0.483
GTACCGCCTTGGGTTCTAACCTGTTGCCT (site GTACCGCCTAG)	1.01
GTACCGCCTTGGGTTCTAACCTGTTGCCT (site GTACGGCCTAG)	0.122
GTACCGCCTTGGGTTCTAACCTGTTGCCT (site GTACTGCCTAG)	0.29
GTACCTTCTTGGGTTCTAACCTGTTGCCT (site GGAGCTTCTAG)	0.0858
GTACCTTCTTGGGTTCTAACCTGTTGCCT (site GTACCTTCTAG)	1.08
GTACGATCTTGGGTTCTAACCTGTTGCAA (site GTACGATCTTT)	0.962
GTACGATCTTGGGTTCTAACCTGTTGCAA (site GTACGGTCTAT)	0.291
GTACGATCTTGGGTTCTAACCTGTTGCGG (site CCTTCTCCTAT)	0.0115
GTACGATCTTGGGTTCTAACCTGTTGCGG (site GTACGATCTCC)	0.753
GTACGGCCTTGGGTTCTAACCTGTTGCCT (site GTACAGCCTAG)	0.453
GTACGGCCTTGGGTTCTAACCTGTTGCCT (site GTACCGCCTAG)	0.0984
GTACGGCCTTGGGTTCTAACCTGTTGCCT (site GTACGGCCTAG)	0.319
GTACGGCCTTGGGTTCTAACCTGTTGCCT (site GTACTGCCTAG)	0.0887
GTACTCTCTTGGGTTCTAACCTGTTGCCA (site GAACTGTCTTG)	0.143
GTACTCTCTTGGGTTCTAACCTGTTGCCA (site GTACTCTCTTG)	1.38
GTAGCACCTTGGGTTCTAACCTGTTGCTT (site GTAGCACCTAA)	1.72
GTAGCACCTTGGGTTCTAACCTGTTGCTT (site GTATGACCTAA)	0.323
GTAGGTCCTTGGGTTCTAACCTGTTGCCG (site GTAGGTCCTCG)	2.48
GTAGGTCCTTGGGTTCTAACCTGTTGCCG (site TACAACACTAC)	0.0369
GTAGTAACTTGGGTTCTAACCTGTTGCCT (site GTAGTAACTAG)	2.12

Sequence	recombinant barcode read abundance (log10)
GTAGTAACTTGGGTTCTAACCTGTTGCCT (site GTAGTACCTAG)	0.104
GTAGTAACTTGGGTTCTAACCTGTTGCCT (site GTAGTAGCTAG)	0.206
GTAGTAACTTGGGTTCTAACCTGTTGCCT (site GTAGTATCTAG)	0.0374
GTAGTTCCTTGGGTTCTAACCTGTTGCCT (site GTAGTTCCTAG)	1.6
GTAGTTCCTTGGGTTCTAACCTGTTGCCT (site GTCGTTCCTAG)	0.0557
GTATACCCTTGGGTTCTAACCTGTTGCCA (site GTATACCCTAT)	0.498
GTATACCCTTGGGTTCTAACCTGTTGCCA (site GTATACCCTTG)	1.27
GTATATACTTGGGTTCTAACCTGTTGCCT (site GTATATACTAG)	0.902
GTATATACTTGGGTTCTAACCTGTTGCCT (site GTCTATACTAG)	0.112
GTATATACTTGGGTTCTAACCTGTTGCCT (site GTGTATACTAG)	0.241
GTATATACTTGGGTTCTAACCTGTTGCCT (site GTTTATACTAG)	0.00506
GTATCAGCTTGGGTTCTAACCTGTTGCCT (site GTATCAACTAG)	0.181
GTATCAGCTTGGGTTCTAACCTGTTGCCT (site GTATCACCTAG)	0.226
GTATCAGCTTGGGTTCTAACCTGTTGCCT (site GTATCAGCTAG)	1.25
GTATCAGCTTGGGTTCTAACCTGTTGCCT (site GTATCATCTAG)	0.0176
GTATGAACTTGGGTTCTAACCTGTTGCCT (site GTATGAACTAG)	1.44
GTATGAACTTGGGTTCTAACCTGTTGCCT (site GTATGACCTAG)	0.121
GTATGAACTTGGGTTCTAACCTGTTGCCT (site GTATGAGCTAG)	0.384
GTATGAACTTGGGTTCTAACCTGTTGCCT (site GTATGATCTAG)	0.119
GTATGACCTTGGGTTCTAACCTGTTGCTT (site GTAGCACCTAA)	0.0633
GTATGACCTTGGGTTCTAACCTGTTGCTT (site GTATGACCTAA)	1.54
GTATGAGCTTGGGTTCTAACCTGTTGCTG (site ATTTGAGCTCA)	0.288
